Test system: CD11b^+ macrophage population from BAL cells
Experiment: Murine model of ITB-induced ALI: DPPC-TC fluorescence in BAL cells by flow cytometry
Format: in vivo, mice
Settings: 0.5 mM LNPs (5 mol % probe) on day 3, BAL 3 hour-post instillation, n = 3
Description: FIGS. 11A-11B: flow cytometry analysis of myeloid-derived BAL cells for migratory phenotype and DPPC-TC-ONOO^− probe activity in murine model of ALI. FIG. 11A: conceptual illustration of ITB-induced ALI and LNP instillation. FIG. 11B: classification of myeloid-derived BAL cells by migratory phenotype (CD11b+) and DPPC-TC fluorescence. Quadrant plots are shown for individual mice, which were used to quantify DPPC-TC as a measure of peroxynitrite generation. After successfully imaging the iNOS dependent peroxynitrite activity in both HeLa and RAW264.7, the potential of DPPC-TC-ONOO^− for detecting peroxynitrite generated in lung tissue injury using a pre-established murine model of ALI was explored (FIGS. 11A-11B). During ALI, release of cytokines and chemokines, such as tumor necrosis factor-alpha (TNF-α) and interleukin-1 beta ([…]), recruit macrophages and other immune cells to the site of injury. During the initial phase of injury (d0-d3), pro-inflammatory macrophages are dominant, which is associated with higher levels of iNOS expression. Herein, a previously reported ITB method was employed, which causes a severe inflammatory response characterized by infiltration of immune cells, which is dependent upon iNOS activation. For a generalizable and biocompatible instillation protocol, LNP concentrations ranging from 0.5 to 2.0 mM were evaluated. LNPs carrying DPPC-TC (5 mol % of the lipid content) were employed in C57BL6/J mice and the viability of the cells from BAL was analyzed via flow cytometry. Results indicated 94% viability at 0.5 mM LNP concentration, which was employed for the subsequent experiments. On d0, mice (C57BL6/J or iNOS^−/−) were anesthetized and received an intratracheal instillation of either PBS (control) or bleomycin (FIGS. 11A-11B). To detect the peroxynitrite generation during the early inflammatory response, mice were again anesthetized and instilled with 0.5 mM LNPs containing DPPC-TC-ONOO^− (5 mol % of the lipid content) on day 3. […] The migratory population was further analyzed for DPPC-TC signal quantification (Table 4).

SMILES: CCCCCCCCCCCCCCCC(=O)OCC(COP(=O)([O-])OCC[N+](C)(C)Cc1cn(-c2cc3ccc(OC(=O)Oc4ccc(CCC(=O)C(F)(F)F)cc4)cc3oc2=O)nn1)OC(=O)CCCCCCCCCCCCCCC (racemic) [DPPC-TC-ONOO^−]
- DPPC-TC p:n ratio (WT-ITB): 0.72 ± 0.008
- DPPC-TC p:n ratio (WT-PBS): 0.55 ± 0.021
- DPPC-TC p:n ratio (iNOS^−/−-ITB): 0.56 ± 0.018

— patent US20240385182A1, “MASKED FLUOROGENIC LIPID COMPOUNDS, LIPID PARTICLES COMPRISING THE SAME, AND METHODS OF USE THEREOF” (Rutgers, The State University of New Jersey, priority 2023, published 2024)
